The supplement of paper PMC8960247
Structures can show the parent of a compound that is named as a salt. ± gives the standard error.

Test system: 621-102 (TSC2-deficient)
Test: relative viability vs DMSO; higher = less cytotoxic
Conditions: 0.1 µM; serum: 10% FBS; 72 h
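Also: immortalized renal angiomyolipoma cells stably carrying empty vector or TSC2, dosed in 384-well plates in DMEM, viability normalized to vehicle-treated wells within each plate.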

Compound | relative viability
C[C@]12C=CC(=O)N[C@@H]1CC[C@@H]1[C@@H]2CC[C@]2(C)[C@@H](C(=O)Nc3cc(C(F)(F)F)ccc3C(F)(F)F)CC[C@@H]12 [Dutasteride (Avodart)] | 96.4 ± 1.7%
Cc1cc(Nc2cc(N3CCN(C)CC3)nc(/C=C/c3ccccc3)n2)n[nH]1 [ENMD-2076] | 98.213 ± 0.069%
COc1cc2c(cc1Cc1cccc(Cl)c1F)c(=O)c(C(=O)O)cn2[C@H](CO)C(C)C [Elvitegravir] | 106 ± 1.4%
Nc1nc(=O)n([C@@H]2CS[C@H](CO)O2)cc1F [Emtricitabine] | 88.7 ± 4.1%
CCOC(=O)[C@H](CCc1ccccc1)N[C@@H](C)C(=O)N1CCC[C@H]1C(=O)O [Enalapril Maleate] | 101 ± 3.5%
C[C@H](N[C@@H](CCc1ccccc1)C(=O)O)C(=O)N1CCC[C@H]1C(=O)O [Enalaprilat] | 98.48 ± 0.16%
Cn1cc(C2=C(c3cn(C4CCN(Cc5ccccn5)CC4)c4ccccc34)C(=O)NC2=O)c2ccccc21 [Enzastaurin] | 104 ± 2.2%
CNC[C@H](O)c1ccc(O)c(O)c1 [Epinephrine bitartrate] | 101 ± 2.4%
C/C(=C\c1csc(C)n1)[C@@H]1C[C@@H]2O[C@@H]2CCC[C@H](C)[C@H](O)[C@@H](C)C(=O)C(C)(C)[C@@H](O)CC(=O)O1 [Epothilone A] | 27.3 ± 1.1%
C/C(=C\c1csc(C)n1)[C@@H]1C[C@@H]2O[C@]2(C)CCC[C@H](C)[C@H](O)[C@@H](C)C(=O)C(C)(C)[C@@H](O)CC(=O)O1 [Epothilone B (EPIO906)] | 32.2 ± 1.6%
C#Cc1cccc(Nc2ncnc3cc(OCCOC)c(OCCOC)cc23)c1 [Erlotinib] | 103 ± 1.4%
COc1ccc2[nH]c([S@@+]([O-])Cc3ncc(C)c(OC)c3C)nc2c1 [Esomeprazole sodium (Nexium I.V.)] | 97.9 ± 3.1%
COc1cc([C@@H]2c3cc4c(cc3[C@@H](O[C@@H]3O[C@@H]5CO[C@@H](C)O[C@H]5[C@H](O)[C@H]3O)[C@H]3COC(=O)[C@H]23)OCO4)cc(OC)c1O [Etoposide (Etopophos)] | 104 ± 2.5%

Same assay, conditions: 1 µM; serum: 10% FBS; 72 h

Compound | relative viability
C[C@]12C=CC(=O)N[C@@H]1CC[C@@H]1[C@@H]2CC[C@]2(C)[C@@H](C(=O)Nc3cc(C(F)(F)F)ccc3C(F)(F)F)CC[C@@H]12 [Dutasteride (Avodart)] | 107.7 ± 0.56%
Cc1cc(Nc2cc(N3CCN(C)CC3)nc(/C=C/c3ccccc3)n2)n[nH]1 [ENMD-2076] | 81.1 ± 2.8%
COc1cc2c(cc1Cc1cccc(Cl)c1F)c(=O)c(C(=O)O)cn2[C@H](CO)C(C)C [Elvitegravir] | 110 ± 3%
Nc1nc(=O)n([C@@H]2CS[C@H](CO)O2)cc1F [Emtricitabine] | 92 ± 9.3%
CCOC(=O)[C@H](CCc1ccccc1)N[C@@H](C)C(=O)N1CCC[C@H]1C(=O)O [Enalapril Maleate] | 105 ± 4.1%
C[C@H](N[C@@H](CCc1ccccc1)C(=O)O)C(=O)N1CCC[C@H]1C(=O)O [Enalaprilat] | 95.91 ± 0.29%
Cn1cc(C2=C(c3cn(C4CCN(Cc5ccccn5)CC4)c4ccccc34)C(=O)NC2=O)c2ccccc21 [Enzastaurin] | 106 ± 4.1%
CNC[C@H](O)c1ccc(O)c(O)c1 [Epinephrine bitartrate] | 103 ± 1.3%
C/C(=C\c1csc(C)n1)[C@@H]1C[C@@H]2O[C@@H]2CCC[C@H](C)[C@H](O)[C@@H](C)C(=O)C(C)(C)[C@@H](O)CC(=O)O1 [Epothilone A] | 30.4 ± 0.53%
C/C(=C\c1csc(C)n1)[C@@H]1C[C@@H]2O[C@]2(C)CCC[C@H](C)[C@H](O)[C@@H](C)C(=O)C(C)(C)[C@@H](O)CC(=O)O1 [Epothilone B (EPIO906)] | 35.2 ± 2.2%
C#Cc1cccc(Nc2ncnc3cc(OCCOC)c(OCCOC)cc23)c1 [Erlotinib] | 97.8 ± 1.9%
COc1ccc2[nH]c([S@@+]([O-])Cc3ncc(C)c(OC)c3C)nc2c1 [Esomeprazole sodium (Nexium I.V.)] | 91.1 ± 1%
COc1cc([C@@H]2c3cc4c(cc3[C@@H](O[C@@H]3O[C@@H]5CO[C@@H](C)O[C@H]5[C@H](O)[C@H]3O)[C@H]3COC(=O)[C@H]23)OCO4)cc(OC)c1O [Etoposide (Etopophos)] | 81.3 ± 5.1%

Same assay, conditions: 10 µM; serum: 10% FBS; 72 h

Compound | relative viability
C[C@]12C=CC(=O)N[C@@H]1CC[C@@H]1[C@@H]2CC[C@]2(C)[C@@H](C(=O)Nc3cc(C(F)(F)F)ccc3C(F)(F)F)CC[C@@H]12 [Dutasteride (Avodart)] | 98.5 ± 2.3%
Cc1cc(Nc2cc(N3CCN(C)CC3)nc(/C=C/c3ccccc3)n2)n[nH]1 [ENMD-2076] | 34.56 ± 0.15%
COc1cc2c(cc1Cc1cccc(Cl)c1F)c(=O)c(C(=O)O)cn2[C@H](CO)C(C)C [Elvitegravir] | 99.7 ± 3.7%
Nc1nc(=O)n([C@@H]2CS[C@H](CO)O2)cc1F [Emtricitabine] | 83.5 ± 6.5%
CCOC(=O)[C@H](CCc1ccccc1)N[C@@H](C)C(=O)N1CCC[C@H]1C(=O)O [Enalapril Maleate] | 100.5 ± 0.3%
C[C@H](N[C@@H](CCc1ccccc1)C(=O)O)C(=O)N1CCC[C@H]1C(=O)O [Enalaprilat] | 101.3 ± 0.23%
Cn1cc(C2=C(c3cn(C4CCN(Cc5ccccn5)CC4)c4ccccc34)C(=O)NC2=O)c2ccccc21 [Enzastaurin] | 98.6 ± 6.9%
CNC[C@H](O)c1ccc(O)c(O)c1 [Epinephrine bitartrate] | 100 ± 1.5%
C/C(=C\c1csc(C)n1)[C@@H]1C[C@@H]2O[C@@H]2CCC[C@H](C)[C@H](O)[C@@H](C)C(=O)C(C)(C)[C@@H](O)CC(=O)O1 [Epothilone A] | 34.2 ± 0.53%
C/C(=C\c1csc(C)n1)[C@@H]1C[C@@H]2O[C@]2(C)CCC[C@H](C)[C@H](O)[C@@H](C)C(=O)C(C)(C)[C@@H](O)CC(=O)O1 [Epothilone B (EPIO906)] | 37.6 ± 1.2%
C#Cc1cccc(Nc2ncnc3cc(OCCOC)c(OCCOC)cc23)c1 [Erlotinib] | 96.7 ± 3.3%
COc1ccc2[nH]c([S@@+]([O-])Cc3ncc(C)c(OC)c3C)nc2c1 [Esomeprazole sodium (Nexium I.V.)] | 88.632 ± 0.085%
COc1cc([C@@H]2c3cc4c(cc3[C@@H](O[C@@H]3O[C@@H]5CO[C@@H](C)O[C@H]5[C@H](O)[C@H]3O)[C@H]3COC(=O)[C@H]23)OCO4)cc(OC)c1O [Etoposide (Etopophos)] | 54.6 ± 2.9%
